Experimental data as given in patent US9546367B2, “siRNA compositions and methods for inhibiting gene expression in tumor initiating cells of breast cancer” (priority 2011, dated 2017).

Tests used:
BT549 [1] = experiment: high-throughput lentiviral shRNA mammosphere formation (MSFE) screen; format: cell-based, human; conditions: Z-score of mammosphere formation vs plate mean, one shRNA per well, 2000 cells/well, 8 biological replicates
Protocol: (§1) In previously published results, the inventors described a breast cancer stem cell signature that comprised a set of 493 statistically significant, differentially expressed genes that were present in a tumorigenic subpopulation of breast cancer cells (Creighton et al. 2009). The biological confirmation of the significance of these differentially expressed genes was conducted using a shRNA-based gene knockdown approach, correlating the selective knockdown of target genes with mammosphere formation efficacy (MSFE), an in vitro assay for self-renewal. A library of shRNAs which targets the entire human genome (Open Biosystems, Boston, Mass., USA) was used to create a sub-library of shRNAs against the 493 differentially expressed genes in the tumorigenic signature. A total of 1124 shRNAs (˜2-3 shRNA per gene), and appropriate control shRNAs that were encoded in the pGIPZ vector with a green fluorescent protein tag were selected and arrayed on 13×96-well microtiter plates.
(§2) These shRNAs were packaged into lentiviral particles using a second-generation lentiviral packaging system (Addgene, Cambridge, Mass., USA) in 293T cells plated on 96-well plates. The supernatant was then harvested for transduction and expression in a wide range of cell types. Specifically, lentiviruses were collected 3 days after transfection, frozen at −80° C. immediately, and then thawed for transducing two different breast cancer cell lines SUM159PT (American Type Culture Collection; Manassas, Va., USA) and BT549 (ATCC) with 8 biological replicates. Cells were plated in 13×96-well ultra-low attachment plates, at 2000 cells/well, with one shRNA being transduced per well using the Biomek 3000 automated workstation (Beckman Coulter; Brea, Calif. USA), in order to ensure reproducibility and accuracy.
(§3) The lentiviral transduction rate (˜80-90%) in these cell lines was evaluated by fluorescence microscopy using the GFP tag in the pGIPZ vector. MSFE was then assessed in a high throughput screening approach of all 493 genes.
(§4) For shRNA knockdown studies, the mean and the standard deviation from all measurements of each plate for each replicated experiment were estimated. The Z-score was calculated by subtracting the mean of the plate values and dividing this difference by the standard deviation. […] For tumor volume fold-change comparisons, one-way Anova was used to compare different treatment groups. This was followed by Tukey analysis for a pairwise comparison of different treatment groups. For the tumor recurrence studies, events were defined as first appearance of tumor >50 mm^3 after completion of treatment. Time to recurrence was derived by Kaplan-Meier method, with differences compared using the generalized Mann-Whitney-Wilcoxon rank-sum test.
(§5) Previously, a breast cancer stem cell signature was identified comprising 493 statistically significant differentially expressed genes (Creighton et al., 2009). The biological significance of this gene set was confirmed by conducting shRNA-based gene knockdown, and correlating the selective knockdown of target genes using mammosphere-forming efficiency (MSFE), an in vitro assay for self-renewal. As described in the previous examples, a library of shRNAs targeting the entire human genome (Open Biosystems, MA, USA) was used to create a sub-library of shRNAs against the differentially expressed genes in the tumorigenic signature. Using these genes along with appropriate control shRNAs, a total of 1124 shRNAs (˜2-3 shRNA per gene) were tagged with green fluorescent protein, and encoded in pGIPZ vector, and then arrayed on to 13×96-well plates. These shRNAs were packaged into lentiviral particles using a second-generation lentiviral packaging system (Thermo-Fischer, USA) in 293T cells plated in 96-well plates. The supernatant was then harvested for transduction and expression in a wide range of cell types. […]

SUM159 [2] = experiment: as above; format: cell-based, human; conditions: Z-score of mammosphere formation vs plate mean, one shRNA per well, 2000 cells/well, 8 biological replicates
Protocol: as §1, §2, §3, §4, §5

SUM159 [3] = experiment: as above; format: cell-based, human; conditions: positive control; for mammosphere forming efficiency: increasing concentration, SUM159 cells
[4] = tested on: BCM-2665A human primary tumor; experiment: docetaxel treatment of BCM-2665A xenograft, tumor growth and ALDF staining; format: in vivo, SCID/Beige mice
Protocol: SCID/Beige mice were inoculated with BCM-2665A human primary tumor tissues. After tumors reached 1 cm^3 in size, the tumor mice were treated with 20 mg/kg docetaxel. […] The residual tumor tissues were collected at the end of the experiment, treated with collagenase, and single cells were stained with Aldefluor® reagent (ALDF). Positive staining by ALDF is one of the characteristic markers for TIC. The percentage of ALDF-positive cells was higher in the docetaxel-treated tumor, than in the control samples.

BT549 [5] = experiment: in vitro MSFE with nanoliposome/silicon particle packaged siRNA; format: cell-based, human; conditions: BT549
Protocol: “Claudin-low”-like human breast cancer cell lines (SUM159 and BT549) were plated in 24-well ultralow attachment plates with mammary epithelial growth medium (MEGM) (5,000 cells/well). Both cell lines were then treated with 1 μg/well/6 wells of silicon particles loaded with DOPC nanoliposomes/siRNA. The primary MSs were allowed to grow for 3 days. MFs were counted on Day 3 with a GelCount colony counter (Oxford Optronix, Oxford, UK). Mammosphere-Forming Efficiency (MSFE) was calculated by dividing the number of MSs by the number of seeded cells. In addition, established MSs were serially passaged by dissociation, and single cells were re-plated on fresh 24-well, ultra-low-attachment plates to form secondary mammospheres, which were counted after 3 days. One-way ANOVA and Tukey tests were performed. A p-value of less than 0.05 was considered significant.
To develop a more clinically relevant model, two of the identified candidates (MLF2 and RPL39L) were compared to Stat3 (positive control), and their siRNA sequences identified within the shRNA vector. These siRNAs were then packaged in nanoliposomes and tested for MSFE using the same protocol as above, except for the addition of packaged siRNA instead of lentiviral shRNA. (N.B. wherein shRNA requires a promoter and needs to be transcribed in order to function, siRNA functions by itself once incorporated into recipient cells).
To develop siRNA nanotherapeutics targeting TIC, studies have been conducted to confirm the essential roles of the candidate TIC genes. Exemplary siRNA oligonucleotides specific for STAT3, MFL2, and RPL39L were formulated into nanoliposomes, which were then loaded into porous silicon MSV particles. For in vitro assay, BT549 and SUM159 cells were incubated with MSV/siRNA, and primary and secondary MSFE was measured. […] For in vivo assessment, SCID/Beige mice were inoculated with SUM159 tumor, and treated with MDS/siRNA delivered by tail vein injection. Cells were then isolated from tumor mice 3 weeks later, and MSFE was measured. […] These studies indicate that 1) MDS/siRNA could successfully be delivered to tumor tissues effectively in vivo, 2) uptake of MDS/siRNA by TIC was efficient, and 3) MFL2 and RPL39L were essential genes for TIC.
The siRNA sequences of two candidate genes RPL39 and MLF2 were packaged in nanoliposomes and the effects on MSFE determined in vitro, as described above, using packaged siRNA instead of lentiviral shRNA.

MDAMB231 lung metastasis = experiment: in vivo lung metastasis of luciferase-tagged MDAMB231, IVIS imaging; set-up: species or system SCID-beige mice; conditions: siRNA in cationic liposomes twice weekly, week six
Protocol: 3 million cells MDAMB231 cancer cells, stably transfected with luciferase, were injected in the mammary fat pad of SCID-beige mice and were randomized into 3 groups: (1) vehicle+scrambled siRNA, (2) vehicle+MLF2 siRNA, and (3) vehicle+RPL39 siRNA, and treated with siRNA packaged liposomes twice weekly for 6 weeks. The mice were injected with D-luciferin every week for 6 weeks to determine lung metastases using IVIS imaging (Perkin Elmer). The primary tumors were removed by week 5 to continue this study without increasing the primary tumor burden to 10% of body weight.
To assess the effects of RPL39 and MLF2 siRNA on lung metastasis, SCID-Beige mice were injected with luciferase-tagged MDAMB231 cells and treated with siRNA against RPL39 or MLF2 packaged in cationic liposomes, twice weekly simultaneously, and then sacrificed at week six.

O=S1(=O)N[C@@]2(CN1CC(F)(F)F)[C@@H]1CC[C@H]2Cc2ccc(/C=C/CN3CCC(C(F)(F)F)CC3)cc2C1 [MRK-003]
BT 549 Z-score (BT549 [1]; listed as AA_GSI_pos1_1): −0.731
BT 549 Z-score (BT549 [1]; listed as AA_GSI_pos1_6): −0.688
BT 549 Z-score (BT549 [1]; listed as AA_GSI_pos1_8): −0.519
BT 549 Z-score (BT549 [1]; listed as AA_GSI_pos1_10): −0.719
BT 549 Z-score (BT549 [1]; listed as AA_GSI_pos1_11): −0.675
BT 549 Z-score (BT549 [1]; listed as AA_GSI_pos2_5): −0.463
BT 549 Z-score (BT549 [1]; listed as AA_GSI_pos2_8): −0.894
BT 549 Z-score (BT549 [1]; listed as AA_GSI_pos2_10): −0.685
BT 549 Z-score (BT549 [1]; listed as AA_GSI_pos2_13): −0.397
SUM 159 Z-score (SUM159 [2]; listed as AA_GSI_pos1_1): −2.026
SUM 159 Z-score (SUM159 [2]; listed as AA_GSI_pos1_6): −1.904
SUM 159 Z-score (SUM159 [2]; listed as AA_GSI_pos1_8): −1.850
SUM 159 Z-score (SUM159 [2]; listed as AA_GSI_pos1_10): −1.697
SUM 159 Z-score (SUM159 [2]; listed as AA_GSI_pos1_11): −2.078
SUM 159 Z-score (SUM159 [2]; listed as AA_GSI_pos2_5): −1.923
SUM 159 Z-score (SUM159 [2]; listed as AA_GSI_pos2_8): −1.971
SUM 159 Z-score (SUM159 [2]; listed as AA_GSI_pos2_10): −2.139
SUM 159 Z-score (SUM159 [2]; listed as AA_GSI_pos2_13): −1.857
MS formation (SUM159 [3]; 10 μM concentration): dramatically reduced
mammosphere forming efficiency (SUM159 [3]): dose-dependent decrease
mammosphere forming efficiency (SUM159 [3]; listed as notch inhibitor): inhibiting MS formation

CC(=O)O[C@@]12CO[C@@H]1C[C@H](O)[C@@]1(C)C(=O)[C@H](O)C3=C(C)[C@@H](OC(=O)[C@H](O)[C@@H](NC(=O)OC(C)(C)C)c4ccccc4)C[C@@](O)([C@@H](OC(=O)c4ccccc4)[C@H]21)C3(C)C [docetaxel]
tumor growth ([4]; 20 mg/kg docetaxel, next 14 days): Significant inhibition
percentage of ALDF-positive cells ([4]; residual tumor after 20 mg/kg docetaxel, vs control samples): higher

scrambled siRNA: control siRNA; sense SEQ ID NO: 1 ATCTCGCTTGGGCGAGAGTAAG, antisense SEQ ID NO: 17 CTTACTCTCGCCCAAGCGAGAG (listed as DNA, chemistry not given here) [reference compound]
MSFE, primary MSs (BT549 [5]; 1 μg/well silicon particles loaded with DOPC nanoliposomes/siRNA, counted Day 3): 2.4%
MSFE, secondary MSs (BT549 [5]; silicon particles loaded with DOPC nanoliposomes/siRNA, re-plated, counted after 3 days): 1%
lung metastasis (animals with metastasis / animals), IVIS imaging (MDAMB231 lung metastasis): 12/12
